The supplement of paper PMC8671470

Columns and labels:
Conditions in all cases: 72 h
[1] = system: Mono-Mac-6; experiment: cell viability (% survival relative to DMSO control, bortezomib = 0%); higher = less cytotoxic
Outline: (§1)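 Percent survival figures are means of duplicate wells. They were obtained by CellTiter-Glo luminescence after 10 AML and 5 CML cell lines spent 72 h at 37 °C with 5% CO2 in 384-well plates with compounds at 1, 10, 100, 1000 or 10000 nM. Vehicle was set to 100% and a 10 µM positive control to 0%.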

[2] = system: LAMA-84; experiment: as above
Outline: as §1

[3] = system: BV-173; experiment: as above
Outline: as §1

[4] = system: HL-60; experiment: area under dose-response curve (viability, 1 nM-10 uM) (fraction (0-1)); higher = more sensitive
Outline: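 Four-parameter log-logistic fits in drc and PharmacoGx supplied area under the curve where it is given. Underlying viability came from CellTiter-Glo, normalised to DMSO and proteasome-inhibitor wells, with the proteasome inhibitor at 10 μM. HL-60 cells in RPMI 1640 plus 10% FBS had been rescreened against the full library at five tenfold concentrations of 1–10,000 nM, in duplicate on 384-well plates, with DMSO or 100 nM of one of three metabolic inhibitors, for 72 h at 37 °C, 5% CO2.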

[5] = system: myeloid leukemia patient primary cells Pat.2; experiment: cell viability (% survival relative to DMSO control); higher = less cytotoxic
Outline: (§2)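 Mononuclear cells from patients with AML or CML were thawed, purified on Ficoll and placed in RPMI 1640 with 10% FBS at 10,000 cells/well on 384-well plates. The plates came pre-printed with 70 compounds at five tenfold concentrations spanning 1–10,000 nM, in duplicate, and cells were exposed for 72 h. CellTiter-Glo gave viability, scaled between DMSO wells and wells with 10 μM proteasome inhibitor. Where reported, area under the curve was obtained from log-logistic fits with four parameters using the drc and PharmacoGx R packages.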

[6] = system: myeloid leukemia patient primary cells Pat.14; experiment: as above
Outline: as §2

[7] = system: myeloid leukemia patient primary cells Pat.10; experiment: as above
Outline: as §2

[8] = system: myeloid leukemia patient primary cells Pat.8; experiment: as above
Outline: as §2

[9] = system: myeloid leukemia patient primary cells Pat.13; experiment: area under dose-response curve (viability, 1 nM-10 uM) (fraction (0-1)); higher = more sensitive
Procedure: (§3)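 AUC (0–1, higher = more sensitive) of the 5-point dose–response (1 nM–10 µM, 72 h, CellTiter-Glo) in primary AML/CML patient mononuclear cells. 0.030103 is the floor for inactive compounds.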

[10] = system: myeloid leukemia patient primary cells Pat.7; experiment: as above
Procedure: as §3

[11] = system: myeloid leukemia patient primary cells Pat.12; experiment: as above
Procedure: as §3

[12] = system: myeloid leukemia patient primary cells Pat.14; experiment: as above
Procedure: as §3

[13] = system: myeloid leukemia patient primary cells Pat.5; experiment: as above
Procedure: as §3

[14] = system: myeloid leukemia patient primary cells Pat.3; experiment: as above
Procedure: as §3

[15] = system: myeloid leukemia patient primary cells Pat.1; experiment: as above
Procedure: as §3

[16] = system: myeloid leukemia patient primary cells Pat.10; experiment: as above
Procedure: as §3

[17] = system: myeloid leukemia patient primary cells Pat.9; experiment: as above
Procedure: as §3

[18] = system: myeloid leukemia patient primary cells Pat.8; experiment: as above
Procedure: as §3

[19] = system: myeloid leukemia patient primary cells Pat.11; experiment: as above
Procedure: as §3

[20] = system: myeloid leukemia patient primary cells Pat.4; experiment: as above
Procedure: as §3

[21] = system: myeloid leukemia patient primary cells Pat.2; experiment: as above
Procedure: as §3

[22] = system: myeloid leukemia patient primary cells Pat.6; experiment: as above
Procedure: as §3

[23] = system: myeloid leukemia patient primary cells Pat.15; experiment: as above
Procedure: as §3

C[C@]12C=CC(=O)C=C1CC[C@@H]1[C@@H]2[C@@H](O)C[C@@]2(C)[C@H]1CC[C@]2(O)C(=O)CO [Prednisolone]
Conditions | area under dose-response curve, co-treatment: AZD3965 100 nM | area under dose-response curve, co-treatment: DMSO vehicle | area under dose-response curve, co-treatment: GSK2194069 100 nM | area under dose-response curve, co-treatment: pictilisib 100 nM | cell viability, 1 nM [%] | cell viability, 10 nM [%] | cell viability, 100 nM [%] | cell viability, 1000 nM [%] | cell viability, 10000 nM [%]
[1] | – | – | – | – | 93.7 | 90.3 | 151 | 157 | 140
[2] | – | – | – | – | 94.1 | 106 | 92.6 | 88.5 | 81.5
[3] | – | – | – | – | 82.5 | 104 | 18.8 | 1.67 | 2.49
[4] | < 0.0301 | < 0.0301 | < 0.0301 | < 0.0301 | – | – | – | – | –
[5] | – | – | – | – | 95.6 | 86.1 | 87.2 | 77.3 | 76.4
[6] | – | – | – | – | 85.8 | 46.4 | 80.9 | 94 | 68.3
[7] | – | – | – | – | 73.8 | 39.2 | 17.1 | 31.4 | 2.16
[8] | – | – | – | – | 86.3 | 70.1 | 87.3 | 59.3 | 47.6

Conditions | area under dose-response curve
[9] | < 0.0301
[10] | < 0.0301
[11] | < 0.0301
[12] | < 0.0301
[13] | < 0.0301
[14] | 0.227
[15] | < 0.0301
[16] | 0.678
[17] | < 0.0301
[18] | 0.0885

C=CCN(C)CCCCCCOc1ccc(C(=O)c2ccc(Br)cc2)c(F)c1.O=C(O)/C=C/C(=O)O [Ro 48-8071 fumarate]
Conditions | area under dose-response curve, co-treatment: AZD3965 100 nM | area under dose-response curve, co-treatment: DMSO vehicle | area under dose-response curve, co-treatment: GSK2194069 100 nM | area under dose-response curve, co-treatment: pictilisib 100 nM | cell viability, 1 nM [%] | cell viability, 10 nM [%] | cell viability, 100 nM [%] | cell viability, 1000 nM [%] | cell viability, 10000 nM [%]
[1] | – | – | – | – | 92.2 | 87.6 | 92.4 | 96 | 63.8
[2] | – | – | – | – | 90.6 | 100 | 81.1 | 83.8 | 47
[3] | – | – | – | – | 90.3 | 86.2 | 66.2 | 63.3 | 29.5
[4] | 0.0549 | < 0.0301 | 0.0331 | 0.112 | – | – | – | – | –
[5] | – | – | – | – | 98.4 | 99.7 | 97.6 | 97.1 | 71.1
[6] | – | – | – | – | 93.2 | 99.3 | 91.9 | 99.6 | 21
[7] | – | – | – | – | 80.8 | 61.7 | 63.7 | 73.8 | < 0
[8] | – | – | – | – | 78.8 | 96.9 | 94.9 | 92.1 | 75.8

Conditions | area under dose-response curve
[9] | 0.0673
[10] | 0.217
[12] | 0.0802
[13] | 0.146
[14] | 0.576
[15] | 0.109
[16] | 0.146
[17] | 0.13
[18] | 0.0337
[19] | 0.0457
[20] | 0.0305
[21] | 0.0431
[22] | 0.0624
[23] | < 0.0301

CN(CCOc1ccc(Cc2sc(O)nc2O)cc1)c1ccccn1 [Rosiglitazone]
Conditions | area under dose-response curve, co-treatment: AZD3965 100 nM | area under dose-response curve, co-treatment: DMSO vehicle | area under dose-response curve, co-treatment: GSK2194069 100 nM | area under dose-response curve, co-treatment: pictilisib 100 nM | cell viability, 1 nM [%] | cell viability, 10 nM [%] | cell viability, 100 nM [%] | cell viability, 1000 nM [%] | cell viability, 10000 nM [%]
[1] | – | – | – | – | 95.9 | 92.6 | 54.5 | 25.2 | 24.8
[2] | – | – | – | – | 99.3 | 106 | 100 | 95.6 | 97.4
[3] | – | – | – | – | 96.7 | 101 | 81 | 97.7 | 101
[4] | < 0.0301 | < 0.0301 | < 0.0301 | < 0.0301 | – | – | – | – | –
[5] | – | – | – | – | 87.1 | 78.9 | 97.8 | 98.3 | 83.4
[6] | – | – | – | – | 53.7 | 59.7 | > 100 | 91.1 | 50
[7] | – | – | – | – | 73.8 | 40 | 87.7 | 67.1 | 49.2
[8] | – | – | – | – | 92.6 | 87 | 80.3 | 91.8 | 69.7

Conditions | area under dose-response curve
[9] | < 0.0301
[10] | < 0.0301
[11] | < 0.0301
[12] | < 0.0301
[13] | 0.0995
[14] | 0.0764
[15] | < 0.0301
[16] | 0.0632
[17] | 0.139
[18] | < 0.0301
[19] | < 0.0301
[20] | < 0.0301
[21] | < 0.0301
[22] | < 0.0301

CN1CCN(CCCN2c3ccccc3Sc3ccc(C(F)(F)F)cc32)CC1 [Trifluoperazine]
cell viability [%]
Conditions | [1] | [2] | [3] | [5] | [6] | [7] | [8]
1 nM | 108 | 101 | 97.3 | > 100 | 89.2 | 55.5 | 80
10 nM | 112 | 100 | 94.8 | > 100 | 85.5 | 91.7 | 88.9
100 nM | 90.4 | 98.8 | 103 | > 100 | 86.6 | 70.3 | 91.3
1000 nM | 83.2 | 83 | 97.6 | 75.6 | 26.5 | 13.3 | 69.8
10000 nM | 66.6 | 76.5 | 55.3 | 48.6 | 1.65 | 9.9 | 41.6

Conditions | area under dose-response curve
[9] | 0.182
[10] | 0.517
[11] | 0.0812
[12] | 0.294
[13] | 0.36
[14] | 0.429
[15] | 0.209
[16] | 0.362
[17] | 0.423
[18] | 0.106
[19] | 0.174
[20] | 0.162
[21] | 0.108
[22] | 0.187
[23] | 0.102
